Test results from patent US11944623B2, “Modulators of Kv3 channels to treat pain” (Autifony Therapeutics Limited, priority 2015, dated 2024).

Key:
[1] = test system: rat model of persistent inflammatory pain; test: Persistent inflammatory pain model (intraplantar FCA): paw withdrawal to mechanical pressure and cold (10° C.), general observations; format: in vivo; settings: 30 mg/kg oral
Method: (§1) The efficacy of Compounds 1, 2, 3 and 4 was investigated using rat models of neuropathic and/or persistent inflammatory pain.
(§2) Subjects comprised male, Wistar Hanover rats, 6 animals per group (225±2 g for Compound 1 studies and Compound 2 studies; 214±1 g for Compound 3 studies; 236±1 g for Compound 4 studies).
(§3) Vehicle (12% Captisol®; 0.5% w/v HPMC and 0.1% w/v Tween-80; 5 ml/kg via the intraperitoneal route) was prepared using autoclaved deionized water not more than one week prior to use.
(§4) The details of the studies performed are outlined in Table 1.
(§5) The control for the neuropathic pain model was lamotrigine, administered at 30 mg/kg via oral delivery. The control for the inflammatory pain model was diclofenac, administered at 30 mg/kg via oral delivery. Statistical analysis was performed using one-way ANOVA, and comparisons were performed with time-matched vehicle group using Tukey's HSD test wherein * p<0.05, ** p<0.01, *** p<0.001.
(§6) Treatment groups were randomised and blinded. Groups of 6 rats were used.
Mechanical hyperalgesia was examined in a model of persistent inflammatory pain. The hyperalgesia was induced by an intraplantar injection (25 μl) of Freund's Complete Adjuvant (FCA) into the left hind paw.
To assess the effect of the test compound, paw withdrawal thresholds or latencies were measured on both the ipsilateral (FCA-injected) and contralateral (non-injected) paws, prior to (naïve) and 24 hours following FCA injection (predose), and then at 1, 3, 6 and 24 hours after drug or vehicle administration.
(§7) Mechanical hyperalgesia was examined in a model of neuropathic pain by measuring paw withdrawal thresholds (PWT) to increasing mechanical force applied to the dorsal surface of the rat paw using an Analgesymeter (Ugo-Basile, Milan) equipped with a wedge-shaped probe (area 1.75 mm^2). Cut-off was set at 250 g and the end-point was taken as withdrawal of the hind paw. Both ipsilateral and contralateral paw withdrawal readings were taken.
(§8) Cold sensitivity was assessed using a commercially available cold-plate (Ugo Basile, Milan). The cold plate was allowed to stabilize for 5 minutes at the set temperature prior to testing. Paw withdrawal latencies (PWL) were determined with the cold-plate set at 10° C. The animals were lightly restrained and each hind paw in turn placed onto the surface of the cold-plate. The end point was taken as the withdrawal of the paw and recorded as the withdrawal latency for the ipsilateral and the contralateral paw. A maximum cut-off of 30 seconds was used for each paw.
(§9) In addition to behavioural pain readings, each rat was observed throughout the study for changes in general behaviour.
(§10) Data were expressed as withdrawal threshold (g) or withdrawal latencies (s) and percentage reversals calculated according to the following formula: […]
(§11) Statistical analysis was carried out on withdrawal threshold readings using ANOVA with repeated measures followed by Tukey's HSD test. The level for statistical significance was set as p<0.05.

[2] = test system: rat model of neuropathic pain; test: Neuropathic pain model (partial ligation of the sciatic nerve): paw withdrawal to mechanical pressure and cold (10° C.), general observations; format: in vivo
Method: as §1, §2, §3, §4, §5, §6
Neuropathic pain was induced by partial ligation of the sciatic nerve. Briefly, the rats were anaesthetised (isoflurane/O2 inhalation), the left sciatic nerve exposed at mid-thigh level through a small incision and ⅓ to ½ of the nerve thickness tightly ligated within a 7.0 silk suture. The wound was closed with surgical glue. Animals were allowed to recover and tested 12-15 days following surgery.
Withdrawal thresholds or latencies were measured on both the ipsilateral (ligated) and contralateral (non-ligated) paws, prior to (predose) and then up to 24 h following drug or vehicle administration.
Pre-dose behavioural measurements were obtained by measuring paw withdrawals 14 days following nerve ligation; before the initiation of drug treatment. Following treatment, further readings were taken at 1, 3, 6 and 24 hour after administration.
as §7, §8, §9, §10, §11

[3] = positive control in Compound 2 study, 3 hours post-dose
[4] = positive control in Compound 3 study, 3 hours post-dose
[5] = positive control in Compound 4 study
[6] = positive control in Compound 2 Study 1, 30 mg/kg oral, 3 hours post-dose
[7] = positive control in Compound 3 neuropathic study, 30 mg/kg oral, 3 hours post-dose
[8] = positive control in Study 2 (Compounds 1 and 2), 30 mg/kg oral, 3 hours post-dose

With `O=C(O)Cc1ccccc1Nc1c(Cl)cccc1Cl` [diclofenac, reference compound] the “peak reversal, mechanical” value ([1]; positive control in Compound 1 study, 1 hour post-dose) was 64%, the “peak reversal, cold” value ([1]; positive control in Compound 1 study, 3 hours post-dose) was 79% and the “peak reversal, cold” value [1, 3] was 69%. The “peak reversal, mechanical” value [1, 3] was 66%, the “peak reversal, cold” value [1, 4] was 45% and the “peak reversal, mechanical” value [1, 4] was 60%. The “reversal, cold” value [1, 5] was 50% and the “reversal, mechanical” value [1, 5] was 49%.

`Nc1nnc(-c2cccc(Cl)c2Cl)c(N)n1` [lamotrigine, reference compound] was tested, and the “peak reversal, cold” value ([2]; positive control in Compound 1 Study 1, 30 mg/kg oral, 1 hour post-dose) was 58%, the “peak reversal, mechanical” value ([2]; positive control in Compound 1 Study 1, 30 mg/kg oral, 3 hours post-dose) was 65% and the “peak reversal, cold” value [2, 6] was 58%. The “peak reversal, mechanical” value [2, 6] was 54%, the “peak reversal, cold” value [2, 7] was 74% and the “peak reversal, mechanical” value [2, 7] was 61%. The “peak reversal, cold” value [2, 8] was 67% and the “peak reversal, mechanical” value [2, 8] was 67%.
